Among the test systems are A498 renal; ACHN renal; M14 melanoma; SK-MEL-2 melanoma; TK-10 renal; UACC-257 melanoma; SR leukemia.
Common to all, as to experiment: NCI anticancer screen, dose series, 48 h

SMILES strings stand for the structures.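 Interpolation was linear, between the two tested concentrations surrounding the appropriate level; five concentrations were tested over 48 hours in 96-well plates. TGI: total growth inhibition.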 Where a SMILES comes first, the peptide text is derived from it. Side-chain parts run from the residue outwards. The star is where a group is joined. Cbz = O=C(OCc1ccccc1)*; Boc = CC(C)(C)OC(=O)* Where only a bound is given, the exact number is not on record here.

The results in this text go back to PubChem BioAssay (NCI).

As to `O=C(c1ccccc1)c1c(C(F)(F)F)n([O-])c2cc(F)c(F)cc2[n+]1=O`, the TGI in the assay on A498 renal came to 7.19 µM; in the assay on ACHN renal it was 0.232 µM; in the assay with M14 melanoma, 1.49 µM; with SK-MEL-2 melanoma, 4.44 µM; with TK-10 renal, 0.816 µM; in the assay with UACC-257 melanoma, 3.76 µM.
Take `COc1ccc(-c2nc(-c3cnccn3)n(Cc3ccccc3)n2)cc1`: the TGI in the assay with M14 melanoma, with SR leukemia and with UACC-257 melanoma was greater than 100 µM in each case.
For `COc1cc2[nH]c(=O)c3cc(C)cc4c(Cl)nc(c1OC)c2c43`, the TGI with ACHN renal, in the assay with M14 melanoma, in the assay on SK-MEL-2 melanoma, in the assay with TK-10 renal and in the assay with UACC-257 melanoma was greater than 100 µM each time.
Consider `CN(/N=C/c1ccc(Cl)cc1)C1=NCCCCN1`, for which the TGI was greater than 100 µM in the assay with A498 renal; greater than 100 µM in the assay on ACHN renal; 57.4 µM in the assay on M14 melanoma; greater than 100 µM in the assay on SR leukemia; greater than 100 µM with TK-10 renal; greater than 100 µM in the assay with UACC-257 melanoma.
On to `CC(=O)N1C(Nc2cccc3nc(C)ccc23)CCN1c1ccccc1` (configuration not stated), for which the TGI in the assay on ACHN renal, in the assay on M14 melanoma, with SK-MEL-2 melanoma, in the assay on SR leukemia, in the assay with TK-10 renal and in the assay on UACC-257 melanoma was greater than 10 µM in each case.
As to `O=C1CC(C(COCc2ccccc2)OCc2ccccc2)CC(=O)N1` (configuration not stated), the TGI with ACHN renal, in the assay with M14 melanoma, with SR leukemia, with TK-10 renal and in the assay with UACC-257 melanoma was greater than 100 µM throughout.
As for `S=C(N/N=C(\C(=N/NC(=S)N1CCCCC1)c1ccccn1)c1ccccn1)N1CCCCC1`, the TGI with A498 renal was 90.1 µM; in the assay with ACHN renal, 91.6 µM; with M14 melanoma, 50.3 µM; with SR leukemia it was greater than 100 µM; in the assay on TK-10 renal, greater than 100 µM; with UACC-257 melanoma it was greater than 100 µM.
As to `CC(C)(C)OC(=O)NC(CCCCNC(=O)CNC(=O)OCc1ccccc1)C(=O)NC(CCCCNC(=O)CNC(=O)OCc1ccccc1)C(=O)NC(CCCCNC(=O)CNC(=O)OCc1ccccc1)C(=O)NC(CCCCNC(=O)CNC(=O)OCc1ccccc1)C(=O)O` (configuration not stated) (Boc-K([Gly-Cbz])K([Gly-Cbz])K([Gly-Cbz])K([Gly-Cbz])-OH; configuration not given here), the TGI with ACHN renal, with M14 melanoma, in the assay on SK-MEL-2 melanoma, in the assay on SR leukemia, in the assay on TK-10 renal and with UACC-257 melanoma was greater than 100 µM throughout.
For the compound `COc1ccc(C2=C(Cl)c3cc(OC)c(OC)cc3C2)cc1OC`, the TGI with A498 renal, in the assay on ACHN renal, with M14 melanoma, in the assay on SR leukemia and in the assay on UACC-257 melanoma was greater than 100 µM throughout.
As for `Cc1cn([C@@H]2C[C@H](CO)[C@@H]2O)c(=O)[nH]c1=O`, the TGI with A498 renal, in the assay with ACHN renal, in the assay on SK-MEL-2 melanoma, in the assay with SR leukemia, in the assay with TK-10 renal and in the assay with UACC-257 melanoma was greater than 100 µM throughout.
As for `OC(C1CCCCCCCCCC1)C(O)C1CCCCCCCCCC1` (configuration not stated), the TGI in the assay on ACHN renal, in the assay on M14 melanoma, in the assay with SK-MEL-2 melanoma, in the assay with SR leukemia, in the assay with TK-10 renal and in the assay on UACC-257 melanoma was greater than 100 µM throughout.
In the case of `COc1cc2c(c(OC)c1OC)-c1ccc(SC)c(=O)cc1[C@@H](NCc1cccc([N+](=O)[O-])c1)CC2`, the TGI with ACHN renal is greater than 100 µM; in the assay on M14 melanoma it was 13.1 µM; with SR leukemia it was greater than 100 µM; in the assay with TK-10 renal, greater than 100 µM; with UACC-257 melanoma, greater than 100 µM.
`CC(=O)c1ccc2c3c1O[C@H]1c4[nH]c5ccccc5c4C[C@@]4(O)[C@@H](C2)N(CC2CC2)CC[C@]314`: the TGI in the assay with A498 renal was 16.1 µM; in the assay with ACHN renal, 30.9 µM; with M14 melanoma, 31.3 µM; with SK-MEL-2 melanoma, 30.9 µM; in the assay on TK-10 renal, 32.4 µM; with UACC-257 melanoma, 30.7 µM.
Consider `Cc1ccc(N=C2SC(=NN(C)C)SC2=Nc2ccc(C)cc2)cc1`, for which the TGI in the assay on A498 renal, with ACHN renal, in the assay with SK-MEL-2 melanoma, with SR leukemia, in the assay with TK-10 renal and in the assay with UACC-257 melanoma was greater than 100 µM throughout.
Turning to `COc1cc(O)cc(O)c1C(=O)CC(Cl)(Cl)Cl`, the TGI in the assay with A498 renal, in the assay on ACHN renal, with M14 melanoma, with SR leukemia, in the assay with TK-10 renal and in the assay on UACC-257 melanoma was greater than 100 µM throughout.
On to `CC(C)C1=C(Cc2ccccc2)C(=O)O/C1=C\c1ccc(O)c(Cl)c1`, for which the TGI in the assay with A498 renal turned out to be 31.4 µM; in the assay on ACHN renal it was 28.1 µM; with M14 melanoma, 31.3 µM; in the assay on SR leukemia, 26.9 µM; in the assay on TK-10 renal, 31.8 µM; with UACC-257 melanoma it was 32.8 µM.
As for `C1=CN2C[n+]3ccc4ccccc4c3N=C2c2ccccc21`, the TGI in the assay with ACHN renal was 70.5 µM; with M14 melanoma it was 11.7 µM; in the assay with SK-MEL-2 melanoma, 9.33 µM; in the assay on SR leukemia, 4.66 µM; in the assay with TK-10 renal, 43 µM; in the assay on UACC-257 melanoma it was 20.7 µM.
`COc1ccc(CCCN2c3ccccc3Sc3ccccc32)cc1`: the TGI in the assay on A498 renal, in the assay on ACHN renal, in the assay with M14 melanoma, with SK-MEL-2 melanoma, in the assay with TK-10 renal and in the assay on UACC-257 melanoma was greater than 100 µM each time.
With `CCn1c(=O)c2c3ccc(OC)cc3[nH]c2c2ccc(OC)cc21`, the TGI in the assay with A498 renal, with ACHN renal, in the assay on M14 melanoma, in the assay with SR leukemia, with TK-10 renal and in the assay on UACC-257 melanoma was greater than 100 µM throughout.
Consider `O=C(NN1C(=O)C(Cl)C1c1ccccc1Cl)c1ccccc1O` (configuration not stated), for which the TGI in the assay on ACHN renal, with M14 melanoma, in the assay on SK-MEL-2 melanoma, in the assay with TK-10 renal and in the assay on UACC-257 melanoma was greater than 100 µM in each case.
